Consider 25 molecules from US10287301B2 (Achillion Pharmaceuticals, Inc., priority 2015, dated 2019).

The term IC50 denotes the concentration at which inhibition is half-maximal.

This assay deals with Human Factor D (Homo sapiens (Human), UniProt P00746). Briefly: Human Factor D Assay. In kind it is biochemical. Conditions: Table 3; Human Factor D 80 nM, substrate Z-L-Lys-SBzl; read-out: IC50 (Stars). In short, it runs like this: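 Factor D (from human serum) 80 nM final + cpd, 5 min RT, 50 mM Tris/1M NaCl pH 7.5; add Z-L-Lys-SBzl 100 μM and DTNB 100 μM final. IC50 by nonlinear fit of rates vs [cpd].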
Sequence of Human Factor D (P00746 26-253): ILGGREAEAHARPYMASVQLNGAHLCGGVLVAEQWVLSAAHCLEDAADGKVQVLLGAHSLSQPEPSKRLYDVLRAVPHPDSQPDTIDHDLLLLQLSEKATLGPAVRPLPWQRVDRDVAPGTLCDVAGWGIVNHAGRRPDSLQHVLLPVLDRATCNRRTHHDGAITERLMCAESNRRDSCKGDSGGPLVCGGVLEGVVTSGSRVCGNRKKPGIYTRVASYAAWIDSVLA
For the molecule `CC(=O)c1nn(CC(=O)N2C[C@H](F)C[C@H]2C(=O)Nc2nc(Br)cs2)c2ccc(-c3cnc(C)nc3)cc12` [Compound 448, (2S,4R)-1-(2-(3-Acetyl-5-(2-methylpyrimidin-5-yl)-1H-indazol-1-yl)acetyl)-N-(4-bromothiazol-2-yl)-4-fluoropyrrolidine-2-carboxamide], the IC50 was less than 1000 nM.

On to `CC(=O)c1nn(CC(=O)N2C[C@H](F)C[C@H]2C(=O)Nc2nc(Br)c(C)s2)c2ccc(-c3cnc(C)nc3)cc12` [Compound 449, (2S,4R)-1-(2-(3-Acetyl-5-(2-methylpyrimidin-5-yl)-1H-indazol-1-yl)acetyl)-N-(4-bromo-5-methylthiazol-2-yl)-4-fluoropyrrolidine-2-carboxamide], for which the half-inhibitory concentration (IC50) was less than 1000 nM.

As for `COc1ncc(-c2ccc3c(c2)c(C(C)=O)nn3CC(=O)N2C[C@H](F)C[C@H]2C(=O)Nc2ccc(F)c(Br)n2)cn1` [Compound 450, (2S,4R)-1-(2-(3-Acetyl-5-(2-methoxypyrimidin-5-yl)-1H-indazol-1-yl)acetyl)-N-(6-bromo-5-fluoropyridin-2-yl)-4-fluoropyrrolidine-2-carboxamide], the IC50 is less than 1000 nM.

As for `CC(=O)c1nn(CC(=O)N2C[C@H](F)C[C@H]2C(=O)Nc2ccc(F)c(Br)n2)c2ccc(-c3cnc(N)nc3)cc12` [Compound 451, (2S,4R)-1-(2-(3-Acetyl-5-(2-aminopyrimidin-5-yl)-1H-indazol-1-yl)acetyl)-N-(6-bromo-5-fluoropyridin-2-yl)-4-fluoropyrrolidine-2-carboxamide], the IC50 is less than 1000 nM.

As for `CC(=O)O[C@H]1[C@@H](C(=O)Nc2cccc(Br)n2)N(C(=O)Cn2nc(C(C)=O)c3cc(-c4cnc(C)nc4)ccc32)C[C@@H]1F` [Compound 452, (2S,3S,4S)-1-(2-(3-Acetyl-5-(2-methylpyrimidin-5-yl)-1H-indazol-1 yl)acetyl)-2-((6-bromopyridin-2-yl)carbamoyl)-4-fluoropyrrolidin-3-yl acetate], the IC50 is less than 1000 nM.

Take `CC(=O)c1nn(CC(=O)N2C[C@H](F)C[C@H]2C(=O)Nc2nc(-c3ccccc3Cl)cs2)c2ccc(-c3cnc(C)nc3)cc12` [Compound 453, (2S,4R)-1-(2-(3-Acetyl-5-(2-methylpyrimidin-5-yl)-1H-indazol-1-yl)acetyl)-N-(4-(2-chlorophenyl)thiazol-2-yl)-4-fluoropyrrolidine-2-carboxamide]: the IC50 was greater than 10000 nM.

As to `CC(=O)c1nn(CC(=O)N2C3CC3(CN)C[C@H]2C(=O)Nc2cccc(Br)n2)c2ccc(-c3cnc(C)nc3)cc12` (stereo partly drawn) [Compound 454, (3S)-2-(2-(3-Acetyl-5-(2-methylpyrimidin-5-yl)-1H-indazol-1-yl)acetyl)-5-(aminomethyl)-N-(6-bromopyridin-2-yl)-2-azabicyclo[3.1.0]hexane-3-carboxamide], the IC50 was less than 1000 nM.

With `Cc1cccc(C[C@H](O)[C@@H]2C[C@@H](F)CN2C(=O)Cn2cc(C(N)=O)c3cc(-c4cnc(C)nc4)ccc32)n1` [Compound 455, 1-(2-((2S,4R)-4-fluoro-2-((S)-1-hydroxy-2-(6-methylpyridin-2-yl)ethyl)pyrrolidin-1-yl)-2-oxoethyl)-5-(2-methylpyrimidin-5-yl)-1H-indole-3-carboxamide], the IC50 is greater than 10000 nM.

Take `Cc1ncc(-c2ccc3c(c2)c(C(C)F)nn3CC(=O)N2C[C@H](F)C[C@H]2C(=O)Nc2cccc(Br)n2)cn1` (stereo partly drawn) [Compound 456, (2S,4R)—N-(6-Bromopyridin-2-yl)-4-fluoro-1-(2-(3-(1-fluoroethyl)-5-(2-methylpyrimidin-5-yl)-1H-indazol-1-yl)acetyl)pyrrolidine-2-carboxamide]: the IC50 was less than 1000 nM.

For `COc1ncc(-c2ccc3c(c2)c(C(C)=O)nn3CC(=O)N2[C@@H]3C[C@@H]3C[C@H]2C(=O)Nc2ccc(F)c(Br)n2)cn1` [Compound 457, (1R,3S,5R)-2-(2-(3-Acetyl-5-(2-methoxypyrimidin-5-yl)-1H-indazol-1-yl)acetyl)-N-(6-bromo-5-fluoropyridin-2-yl)-2-azabicyclo[3.1.0]hexane-3-carboxamide], the IC50 is less than 1000 nM.

Turning to `CC(=O)c1nn(CC(=O)N2[C@@H]3C[C@@H]3C[C@H]2C(=O)Nc2ccc(F)c(Br)n2)c2ccc(-c3cnc(N)nc3)cc12` [Compound 458, (1R,3S,5R)-2-(2-(3-Acetyl-5-(2-aminopyrimidin-5-yl)-1H-indazol-1-yl)acetyl)-N-(6-bromo-5-fluoropyridin-2-yl)-2-azabicyclo[3.1.0]hexane-3-carboxamide], the IC50 is less than 1000 nM.

As to `CC(=O)c1nn(CC(=O)N2C[C@H](F)C[C@H]2C(=O)NCC2CC2(Cl)Cl)c2ccc(-c3cnc(C)nc3)cc12` (stereo partly drawn) [Compound 459, (2S,4R)-1-(2-(3-acetyl-5-(2-methylpyrimidin-5-yl)-1H-indazol-1-yl)acetyl)-N-((2,2-dichlorocyclopropyl)methyl)-4-fluoropyrrolidine-2-carboxamide], the IC50 is less than 1000 nM.

In the case of `CC(=O)c1nn(CC(=O)N2C[C@H](F)C[C@H]2C(=O)NC2C[C@H]2c2ccccc2Cl)c2ccc(-c3cnc(C)nc3)cc12` (stereo partly drawn) [Compound 460, (2S,4R)-1-(2-(3-acetyl-5-(2-methylpyrimidin-5-yl)-1H-indazol-1-yl)acetyl)-N-((2S)-2-(2-chlorophenyl)cyclopropyl)-4-fluoropyrrolidine-2-carboxamide], the IC50 is less than 1000 nM.

In the case of `CC(=O)c1cn(CC(=O)N2C[C@H](F)C[C@H]2C(=O)NCCCCc2ccccc2)c2ccc(-c3cnc(C)nc3)cc12` [Compound 461, (2S,4R)-1-(2-(3-Acetyl-5-(2-methylpyrimidin-5-yl)-1H-indol-1-yl)acetyl)-4-fluoro-N-(4-phenylbutyl)pyrrolidine-2-carboxamide], the IC50 was less than 1000 nM.

`CC(=O)c1nn(CC(=O)N2CC3CC2(C(=O)Nc2cccc(Br)n2)C3)c2ccc(-c3cnc(C)nc3)cc12` [Compound 462, 2-(2-(3-acetyl-5-(2-Methylpyrimidin-5-yl)-1H-indazol-1-yl)acetyl)-N-(6-bromopyridin-2-yl)-2-azabicyclo[2.1.1]hexane-1-carboxamide]: the IC50 is less than 1000 nM.

For the molecule `CC(=O)c1nn(CC(=O)N2C[C@H](F)C[C@H]2C(=O)NC2CCCC(C)(C)C2)c2ccc(-c3cnc(C)nc3)cc12` (stereo partly drawn) [Compound 464, (2S,4R)-1-(2-(3-acetyl-5-(2-methylpyrimidin-5-yl)-1H-indazol-1-yl)acetyl)-N-(3,3-dimethylcyclohexyl)-4-fluoropyrrolidine-2-carboxamide], the IC50 was less than 1000 nM.

Regarding `CC(=O)c1nn(CC(=O)N2C[C@H](F)C[C@H]2C(=O)Nc2cccc(Br)n2)c2ccc(-c3cnc(C)cn3)cc12` [Compound 465, (2S,4R)-1-(2-(3-Acetyl-5-(5-methylpyrazin-2-yl)-1H-indazol-1-yl)acetyl)-N-(6-bromopyridin-2-yl)-4-fluoropyrrolidine-2-carboxamide], the IC50 is less than 1000 nM.

In the case of `CC(=O)c1nn(CC(=O)N2C[C@H](F)C[C@H]2C(=O)Nc2nc(Br)ccc2C)c2ccc(-c3cnc(C)cn3)cc12` [Compound 467, (2S,4R)-1-(2-(3-Acetyl-5-(5-methylpyrazin-2-yl)-1H-indazol-1-yl)acetyl)-N-(6-bromo-3-methylpyridin-2-yl)-4-fluoropyrrolidine-2-carboxamide], the IC50 is less than 1000 nM.

As for `CC(=O)c1nn(CC(=O)N2C[C@H](F)C[C@H]2C(=O)Nc2nc(Br)ccc2C)c2ccc(-c3ccnc(C)n3)cc12` [Compound 468, (2S,4R)-1-(2-(3-Acetyl-5-(2-methylpyrimidin-4-yl)-1H-indazol-1-yl)acetyl)-N-(6-bromo-3-methylpyridin-2-yl)-4-fluoropyrrolidine-2-carboxamide], the IC50 was less than 1000 nM.

For `CC(=O)c1nn(CC(=O)N2C[C@H](F)C[C@H]2c2nc(-c3cccc(Br)n3)c[nH]2)c2ccc(-c3cnc(C)nc3)cc12` [Compound 469, 2-(3-acetyl-5-(2-Methylpyrimidin-5-yl)-1H-indazol-1-yl)-1-((2S,4R)-2-(4-(6-bromopyridin-2-yl)-1H-imidazol-2-yl)-4-fluoropyrrolidin-1-yl)ethan-1-one], the IC50 was less than 1000 nM.

Take `Cc1cccc(NC(=O)[C@@H]2[C@H]3CC[C@H](C3)N2C(=O)Cn2cc(C(N)=O)c3cc(-c4cnc(C)nc4)ccc32)n1` [Compound 473, 1-(2-((1R,3S,4S)-3-(6-Methylpyridin-2-ylcarbamoyl)-2-azabicyclo[2.2.1]heptan-2-yl)-2-oxoethyl)-5-(2-methylpyrimidin-5-yl)-1H-indole-3-carboxamide]: the IC50 is greater than 10000 nM.

As to `CC(=O)c1nn(CC(=O)N2C[C@H](F)C[C@H]2C(=O)NCC(F)=C(C)C)c2ccc(-c3cnc(C)nc3)cc12` [Compound 474, (2S,4R)-1-(2-(3-acetyl-5-(2-methylpyrimidin-5-yl)-1H-indazol-1-yl)acetyl)-4-fluoro-N-(2-fluoro-3-methylbut-2-en-1-yl)pyrrolidine-2-carboxamide], the IC50 is less than 1000 nM.

For `CC(=O)c1nn(CC(=O)N2C3CC[C@@H](C3)[C@H]2C(=O)Nc2cccc(Br)n2)c2ccc(-c3cnc(C)nc3)cc12` [Compound 475, (3S,4S)-2-(2-(3-Acetyl-5-(2-methylpyrimidin-5-yl)-1H-indazol-1-yl)acetyl)-N-(6-bromopyridin-2-yl)-2-azabicyclo[2.2.1]heptane-3-carboxamide], the half-maximal inhibitory concentration (IC50) is less than 1000 nM.

Turning to `CC(=O)c1nn(CC(=O)N2C[C@H](F)C[C@H]2C(=O)Nc2ccn(-c3ccc(F)cn3)n2)c2ccc(-c3cnc(C)nc3)cc12` [Compound 479, (2S,4R)-1-(2-(3-acetyl-5-(2-Methylpyrimidin-5-yl)-1H-indazol-1-yl)acetyl)-4-fluoro-N-(1-(5-fluoropyridin-2-yl)-1H-pyrazol-3-yl)pyrrolidine-2-carboxamide], the IC50 is less than 1000 nM.

`CC(=O)c1nn(CC(=O)N2[C@H](C(=O)Nc3cccc(Br)n3)C[C@@]3(C)C[C@@H]23)c2ccc(-c3cnc(N)nc3)cc12` [Compound 480, (1R,3S,5R)-2-(2-(3-Acetyl-5-(2-aminopyrimidin-5-yl)-1H-indazol-1-yl)acetyl)-N-(6-bromopyridin-2-yl)-5-methyl-2-azabicyclo[3.1.0]hexane-3-carboxamide]: the IC50 was less than 1000 nM.
